Consider one compound from PMC11003450, “Structure-property relationships of fluorinated carboxylic acid bioisosteres” (Bioorganic & medicinal chemistry letters, 2023).

Like-named read-outs stand apart in the source and are kept apart here.

A word on the pKa: it is the negative logarithm of the acid dissociation constant. What is called logD is the decadic logarithm of the distribution of all forms, ionised or not, between an organic phase and buffer at a given pH. Higher therefore signals a more lipophilic compound.

The nature of data set [1]: pKa by potentiometric titration (Sirius T3).
Data set [2] is described as follows: PAMPA (parallel artificial membrane permeability assay, ran by Analiza). The format is in vitro ADME. The following applies: for Papp: PAMPA. The text has this: In this work, in order to compare the properties of fluorinated carboxylic acid surrogates with those of other commonly used nonfluorinated bioisosteres, we present the design and synthesis of a focused set of matched molecular pairs (MMPs), which include examples of substituted alcohols and phenols featuring one or more fluorine atoms, and the characterization of these compounds for key physicochemical properties such as acidity (pKa), lipophilicity (logD7.4 and permeability (logPapp) in a parallel artificial membrane permeability assay (PAMPA). The data presented allow for an assessment of the impact of incorporation of fluorine on the physicochemical properties of carboxylic acid surrogates.
(In general: The PAMPA barrier holds no transporters, so it reflects passive diffusion.)

Data set [3] in a line: logD7.4 by potentiometric titration (Sirius T3). The following applies: n-octanol/aqueous buffer.

For `Nc1ccc(CCC(O)(C(F)(F)F)C(F)(F)F)cc1` [Compound 3], the pKa is 1 to 1.7 in data set [1] (difference between experimental and calculated pKa, experimental vs ChemAxon); 4.06 in data set [1] (pKa (anilinium/aniline), anilinium/aniline pKa, Table 1); 4.88 in data set [1] (pKa (anilinium/aniline), supplement csv, first value of cell, anilinium/aniline); 7.96 in data set [1] (pKa, acidic group (carboxylic acid, alcohol or phenol), Table 1); 9.38 in data set [1] (pKa, supplement csv, acidic group, compounds 1, 2, 3-10). The “PAMPA % retention (membrane retention)” value in data set [2] was 0.171%. Further, the Papp in data set [2] (class by Pe, read-out: PAMPA Permeability) was more than 1.5 ×10⁻⁶ cm/s; in data set [2] (read-out: PAMPA Pe (effective permeability)), 12 ×10⁻⁶ cm/s. Further, the logD turned out to be 3.04 in data set [3] (pH 7.4, logD7.4, n-octanol / aqueous buffer pH 7.4, Table 1) and 3.14 in data set [3] (pH 7.4, logD7.4, supplement csv, compounds 1, 2, 3-10).
